Reference: US20240109917A1 (ACTELION PHARMACEUTICALS LTD, priority 2020, published 2024)
pIC50: −log10 of the molar value.

Legend:
[1] = target: His6-TEV-PDGFRβ (557-1016) (Homo sapiens (Human), UniProt P09619); assay: PDGFRβ HTRF Assay; type: biochemical; settings: read-out: PDGFR HTRF IC50
Method in brief: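 Human PDGFRβ (557-1016) pre-incubated with compound for 30 min at RT in pH 7.5 HEPES/MgCl2/EGTA/Brij-35/DTT buffer. Reaction started with ATP and TK-biotin peptide, run 3 h at RT, then quenched with EDTA-containing Eu-cryptate antibody/streptavidin-XL665. HTRF 665/620 nm ratio read after 60 min; percent inhibition relative to DMSO and 10 μM imatinib controls.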

[2] = target: Tb-labeled inactive PDGFRβ (Homo sapiens (Human), UniProt P09619); assay: PDGFRβ LanthaScreen Assay; type: binding; settings: read-out: PDGFR Lantha IC50
[3] = target: VEGFR2, unphosphorylated (Homo sapiens (Human), UniProt P35968); assay: VEGFR ADP GLO Assay; type: biochemical
Sequence of VEGFR2, unphosphorylated (P35968 20-1356): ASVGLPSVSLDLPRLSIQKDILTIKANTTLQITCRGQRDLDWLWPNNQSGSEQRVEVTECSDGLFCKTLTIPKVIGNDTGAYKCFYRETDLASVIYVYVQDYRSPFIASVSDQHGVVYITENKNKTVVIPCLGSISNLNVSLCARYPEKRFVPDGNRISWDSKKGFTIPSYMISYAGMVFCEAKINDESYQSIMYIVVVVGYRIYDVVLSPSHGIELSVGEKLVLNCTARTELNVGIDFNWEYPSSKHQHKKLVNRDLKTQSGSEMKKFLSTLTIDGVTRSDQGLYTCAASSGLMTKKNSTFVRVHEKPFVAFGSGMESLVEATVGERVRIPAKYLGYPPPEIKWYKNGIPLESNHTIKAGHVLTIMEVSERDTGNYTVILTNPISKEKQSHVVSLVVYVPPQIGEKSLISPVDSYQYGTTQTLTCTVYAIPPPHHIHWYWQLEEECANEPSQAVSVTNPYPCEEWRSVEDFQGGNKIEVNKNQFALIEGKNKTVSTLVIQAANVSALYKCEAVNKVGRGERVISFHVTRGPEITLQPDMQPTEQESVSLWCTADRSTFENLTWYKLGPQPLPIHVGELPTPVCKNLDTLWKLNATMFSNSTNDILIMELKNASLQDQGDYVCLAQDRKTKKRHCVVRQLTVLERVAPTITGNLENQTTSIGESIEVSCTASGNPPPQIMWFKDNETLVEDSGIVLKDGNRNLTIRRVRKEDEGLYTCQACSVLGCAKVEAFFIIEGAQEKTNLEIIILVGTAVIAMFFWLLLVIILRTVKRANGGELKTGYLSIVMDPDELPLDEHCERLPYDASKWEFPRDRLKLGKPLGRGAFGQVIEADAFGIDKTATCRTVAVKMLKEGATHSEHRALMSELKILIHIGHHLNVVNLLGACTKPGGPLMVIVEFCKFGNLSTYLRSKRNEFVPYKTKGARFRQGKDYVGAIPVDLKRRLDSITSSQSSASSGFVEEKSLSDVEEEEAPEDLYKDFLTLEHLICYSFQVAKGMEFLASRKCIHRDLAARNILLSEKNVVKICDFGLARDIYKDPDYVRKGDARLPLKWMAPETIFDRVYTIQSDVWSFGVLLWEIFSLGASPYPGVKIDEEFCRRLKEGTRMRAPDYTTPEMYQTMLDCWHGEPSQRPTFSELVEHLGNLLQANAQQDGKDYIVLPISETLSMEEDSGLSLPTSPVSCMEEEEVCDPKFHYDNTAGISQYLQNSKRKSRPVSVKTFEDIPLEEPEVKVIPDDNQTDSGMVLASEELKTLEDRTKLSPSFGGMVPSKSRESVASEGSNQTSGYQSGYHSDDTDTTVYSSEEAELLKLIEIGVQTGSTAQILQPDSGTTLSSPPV

Sequence of Tb-labeled inactive PDGFRβ (P09619 33-1106): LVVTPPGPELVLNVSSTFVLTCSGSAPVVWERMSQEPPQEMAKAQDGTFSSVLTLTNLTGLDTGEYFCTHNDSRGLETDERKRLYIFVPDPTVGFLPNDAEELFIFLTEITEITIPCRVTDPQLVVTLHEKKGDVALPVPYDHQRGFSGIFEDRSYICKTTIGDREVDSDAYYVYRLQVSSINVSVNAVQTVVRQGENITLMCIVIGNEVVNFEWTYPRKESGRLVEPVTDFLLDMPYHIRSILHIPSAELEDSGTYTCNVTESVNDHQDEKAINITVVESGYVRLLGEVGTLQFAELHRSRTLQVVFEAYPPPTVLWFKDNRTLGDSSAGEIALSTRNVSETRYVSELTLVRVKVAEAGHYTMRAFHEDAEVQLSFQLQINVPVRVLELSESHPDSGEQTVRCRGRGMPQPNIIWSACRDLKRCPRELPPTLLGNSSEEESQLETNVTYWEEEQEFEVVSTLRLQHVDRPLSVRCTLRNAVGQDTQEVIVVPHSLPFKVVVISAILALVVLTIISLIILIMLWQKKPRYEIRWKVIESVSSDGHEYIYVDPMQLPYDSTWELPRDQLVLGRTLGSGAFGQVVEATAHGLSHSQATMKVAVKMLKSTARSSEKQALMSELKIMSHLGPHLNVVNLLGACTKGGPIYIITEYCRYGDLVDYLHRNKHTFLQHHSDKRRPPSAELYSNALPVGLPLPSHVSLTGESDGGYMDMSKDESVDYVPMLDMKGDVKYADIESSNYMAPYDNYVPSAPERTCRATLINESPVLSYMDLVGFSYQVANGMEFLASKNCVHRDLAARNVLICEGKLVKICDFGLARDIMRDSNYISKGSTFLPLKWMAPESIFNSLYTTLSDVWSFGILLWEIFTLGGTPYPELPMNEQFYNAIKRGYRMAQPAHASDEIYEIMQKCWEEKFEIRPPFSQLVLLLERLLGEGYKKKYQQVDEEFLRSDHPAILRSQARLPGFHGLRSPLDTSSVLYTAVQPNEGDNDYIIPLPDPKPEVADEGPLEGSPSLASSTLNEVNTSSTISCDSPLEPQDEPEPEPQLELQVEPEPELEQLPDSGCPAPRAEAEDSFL
Sequence of His6-TEV-PDGFRβ (557-1016) (P09619 557-1016): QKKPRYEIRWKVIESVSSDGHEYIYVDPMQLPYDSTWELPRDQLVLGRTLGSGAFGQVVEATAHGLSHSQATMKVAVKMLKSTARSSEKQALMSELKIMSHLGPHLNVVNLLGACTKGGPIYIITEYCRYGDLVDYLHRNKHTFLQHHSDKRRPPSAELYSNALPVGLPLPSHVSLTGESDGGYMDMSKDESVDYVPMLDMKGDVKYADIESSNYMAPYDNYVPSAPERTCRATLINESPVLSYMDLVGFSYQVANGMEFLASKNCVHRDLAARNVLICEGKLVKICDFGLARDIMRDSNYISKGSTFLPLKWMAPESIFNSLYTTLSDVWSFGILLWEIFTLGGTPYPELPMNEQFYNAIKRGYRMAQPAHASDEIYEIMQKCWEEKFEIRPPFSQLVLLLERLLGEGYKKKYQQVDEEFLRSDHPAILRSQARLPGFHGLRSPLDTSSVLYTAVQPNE

SMILES | pIC50 [1] | pIC50 [2] | pIC50 [3]
Cc1ncc(C(=O)NCCN2CCCC2(C)C)cc1NC(=O)c1cnn2cc(-c3ccc(=O)[nH]n3)sc12 [Example 141, N-(5-((2-(2,2-dimethylpyrrolidin-1-yl)ethyl)carbamoyl)-2-methylpyridin-3-yl)-2-(6-oxo-1,6-dihydropyridazin-3-yl)pyrazolo[5,1-b]thiazole-7-carboxamide] | 8.74 | 7.73 | < 5.12
Cc1ncc(C(=O)NCCN2CC3(CCC3)C2)cc1NC(=O)c1cnn2cc(-c3cnn(C)c3)sc12 [Example 124, N-(5-((2-(2-azaspiro[3.3]heptan-2-yl)ethyl)carbamoyl)-2-methylpyridin-3-yl)-2-(1-methyl-1H-pyrazol-4-yl)pyrazolo[5,1-b]thiazole-7-carboxamide] | 9.22 | 7.71 | < 5.12
Cc1ncc(C(=O)NCCN2CCCC2(C)C)cc1NC(=O)c1cnn2cc(-c3cnn(C)c3C)sc12 [Example 173, 2-(1,5-dimethyl-1H-pyrazol-4-yl)-N-(5-((2-(2,2-dimethylpyrrolidin-1-yl)ethyl)carbamoyl)-2-methylpyridin-3-yl)pyrazolo[5,1-b]thiazole-7-carboxamide] | 9.52 | 8.51 | < 5.12
Cc1ncc(C(=O)NCCN2CCC3(CC3)C2)cc1NC(=O)c1cnn2cc(-c3cn(C)nc3C)sc12 [Example 177, N-(5-((2-(5-azaspiro[2.4]heptan-5-yl)ethyl)carbamoyl)-2-methylpyridin-3-yl)-2-(1,3-dimethyl-1H-pyrazol-4-yl)pyrazolo[5,1-b]thiazole-7-carboxamide] | 9.52 | 8.59 | < 5.12
Cc1ncc(C(=O)NCCN2CCCC2(C)C)cc1NC(=O)c1cnn2cc(-c3cnn(C4CC4)c3)sc12 [Example 6, 2-(1-cyclopropyl-1H-pyrazol-4-yl)-N-(5-((2-(2,2-dimethylpyrrolidin-1-yl)ethyl)carbamoyl)-2-methylpyridin-3-yl)pyrazolo[5,1-b]thiazole-7-carboxamide] | 9.70 | 8.33 | < 5.12
Cc1ncc(C(=O)NCCN2CCCC2(C)C)cc1NC(=O)c1cnn2cc(-c3cnn(C)c3)sc12 [Example 8, N-(5-((2-(2,2-dimethylpyrrolidin-1-yl)ethyl)carbamoyl)-2-methylpyridin-3-yl)-2-(1-methyl-1H-pyrazol-4-yl)pyrazolo[5,1-b]thiazole-7-carboxamide] | 9.40 | 8.33 | < 5.00
Cc1ncc(C(=O)NCCN2CCC3(CC3)C2)cc1NC(=O)c1cnn2cc(-c3cn(C)cn3)sc12 [Example 162, N-(5-((2-(5-azaspiro[2.4]heptan-5-yl)ethyl)carbamoyl)-2-methylpyridin-3-yl)-2-(1-methyl-1H-imidazol-4-yl)pyrazolo[5,1-b]thiazole-7-carboxamide] | 9.40 | 8.11 | < 5.12
Cc1ncc(C(=O)NCCN2CC3CCC2CC3)cc1NC(=O)c1cnn2cc(-c3cnn(CC(N)=O)c3)sc12 [Example 150, N-(5-((2-(2-azabicyclo[2.2.2]octan-2-yl)ethyl)carbamoyl)-2-methylpyridin-3-yl)-2-(1-(2-amino-2-oxoethyl)-1H-pyrazol-4-yl)pyrazolo[5,1-b]thiazole-7-carboxamide] | 9.22 | 8.26 | < 5.12
Cc1ncc(C(=O)NCCN2CC(C)(C)C2)cc1NC(=O)c1cnn2cc(-c3cn(C)cn3)sc12 [Example 161] | 9.30 | 7.92 | < 5.12
Cc1ncc(C(=O)NCCN2CC3CCC2CC3)cc1NC(=O)c1cnn2cc(-c3cnn(CC#N)c3)sc12 [Example 151, N-(5-((2-(2-azabicyclo[2.2.2]octan-2-yl)ethyl)carbamoyl)-2-methylpyridin-3-yl)-2-(1-(cyanomethyl)-1H-pyrazol-4-yl)pyrazolo[5,1-b]thiazole-7-carboxamide] | 9.52 | 8.55 | < 5.12
Cc1ncc(C(=O)NCCN2CCOCC23CC3)cc1NC(=O)c1cnn2cc(-c3cnn(C)c3)sc12 [Example 110, N-(5-((2-(7-oxa-4-azaspiro[2.5]octan-4-yl)ethyl)carbamoyl)-2-methylpyridin-3-yl)-2-(1-methyl-1H-pyrazol-4-yl)pyrazolo[5,1-b]thiazole-7-carboxamide] | 9.22 | 8.24 | 6.18
Cc1ncc(C(=O)NCCN2CC(C)(C)C2)cc1NC(=O)c1cnn2cc(-c3cccnc3)sc12 [Example 158, N-(5-((2-(3,3-dimethylazetidin-1-yl)ethyl)carbamoyl)-2-methylpyridin-3-yl)-2-(pyridin-3-yl)pyrazolo[5,1-b]thiazole-7-carboxamide] | 9.05 | 7.49 | < 5.12
Cc1ncc(NC(=O)CCN2CC(C)(C)C2)cc1NC(=O)c1cnn2cc(-c3cnn(C)c3)sc12 [Example 96, N-(5-(3-(3,3-dimethylazetidin-1-yl)propanamido)-2-methylpyridin-3-yl)-2-(1-methyl-1H-pyrazol-4-yl)pyrazolo[5,1-b]thiazole-7-carboxamide] | 9.22 | 7.55 | < 5.12
Cc1ncc(NC(=O)CCN2CCCC2(C)C)cc1NC(=O)c1cnn2cc(-c3cnn(C)c3)sc12 [Example 10, N-(5-(3-(2,2-dimethylpyrrolidin-1-yl)propanamido)-2-methyl-pyridin-3-yl)-2-(1-methyl-1H-pyrazol-4-yl)pyrazolo[5,1-b]thiazole-7-carboxamide] | 9.52 | 8.55 | < 5.12
Cc1ncc(NC(=O)NCCC2CCN(C)CC2)cc1NC(=O)c1cnn2cc(-c3cnn(C)c3)sc12 [Example 108, 2-(1-methyl-1H-pyrazol-4-yl)-N-(2-methyl-5-(3-(2-(1-methylpiperidin-4-yl)ethyl)ureido)pyridin-3-yl)pyrazolo[5,1-b]thiazole-7-carboxamide] | 7.97 | 6.31 | < 5.60
Cc1ncc(C(=O)NCCN2CC3CCC2CC3)cc1NC(=O)c1cnn2cc(-c3cnn(CS(C)(=O)=O)c3)sc12 [Example 143, N-(5-((2-(2-azabicyclo[2.2.2]octan-2-yl)ethyl)carbamoyl)-2-methylpyridin-3-yl)-2-(1-((methylsulfonyl)methyl)-1H-pyrazol-4-yl)pyrazolo[5,1-b]thiazole-7-carboxamide] | 9.22 | 8.28 | < 5.12
COCCn1cc(-c2cn3ncc(C(=O)Nc4cc(C(=O)NCCN5CCC(F)(F)CC5)cnc4C)c3s2)cn1 [Example 165, N-(5-((2-(4,4-difluoropiperidin-1-yl)ethyl)carbamoyl)-2-methylpyridin-3-yl)-2-(1-(2-methoxyethyl)-1H-pyrazol-4-yl)pyrazolo[5,1-b]thiazole-7-carboxamide] | 9.22 | 8.47 | < 5.12
Cc1ncc(NC(=O)CCCN2CCC[C@@H]2C)cc1NC(=O)c1cnn2cc(-c3cnn(C)c3)sc12 [Example 106, (S)-2-(1-methyl-1H-pyrazol-4-yl)-N-(2-methyl-5-(4-(2-methylpyrrolidin-1-yl)butanamido)pyridin-3-yl)pyrazolo[5,1-b]thiazole-7-carboxamide] | 8.89 | 7.17 | < 5.12
